Patent US20050208496A1, “Methods of testing for bronchial asthma or chronic obstructive pulmonary disease” (Genox Research, Inc., priority 2002, published 2005)

Test system: mouse counterpart genes
Test: Mouse GeneChip (MG-U74A to MG-U74C) analysis of lung and trachea of the OVA antigen-exposed bronchial hypersensitivity model, S-Sal group versus S-OVA group
Type: in vivo
[1] = S-Sal group versus S-OVA group, MG-U74 chip A, 1st
[2] = S-Sal group versus S-OVA group, MG-U74 chip A, 2nd
[3] = S-Sal group versus S-OVA group, MG-U74 chip A, 3rd
[4] = S-Sal group versus S-OVA group, MG-U74 chip B, 1st
[5] = S-Sal group versus S-OVA group, MG-U74 chip B, 2nd
[6] = S-Sal group versus S-OVA group, MG-U74 chip B, 3rd
[7] = S-Sal group vs S-OVA group, 1st, chip A, P/A call A
[8] = S-Sal group vs S-OVA group, 1st, chip A, P/A call P
[9] = S-Sal group vs S-OVA group, 1st, chip B, P/A call A
[10] = S-Sal group vs S-OVA group, 1st, chip B, P/A call P
[11] = S-Sal group vs S-OVA group, 1st, chip C, P/A call P
[12] = S-Sal group vs S-OVA group, 2nd, chip A, P/A call A
[13] = S-Sal group vs S-OVA group, 2nd, chip A, P/A call P
[14] = S-Sal group vs S-OVA group, 2nd, chip B, P/A call A
[15] = S-Sal group vs S-OVA group, 2nd, chip B, P/A call P
[16] = S-Sal group vs S-OVA group, 2nd, chip C, P/A call P
[17] = S-Sal group vs S-OVA group, 3rd, chip A, P/A call A

## ovalbumin [OVA antigen, ovalbumin antigen used for sensitization and inhalation to induce bronchial hypersensitivity in mice]
[1]
  Fold Change 1st, contactin 1 (mouse Probe ID 92936_at): 1.3
  Fold Change 1st, lectin, galactose binding, soluble 1 (mouse Probe ID 99669_at): 1.6
  Fold Change 1st, peptidyl arginine deiminase, type I (mouse Probe ID 95343_at): 1.3
  Fold Change 1st, peptidyl arginine deiminase, type III (mouse Probe ID 103803_at): 2.2
[2]
  Fold Change 2nd, contactin 1 (mouse Probe ID 92936_at): 1.9
  Fold Change 2nd, lectin, galactose binding, soluble 1 (mouse Probe ID 99669_at): 2
  Fold Change 2nd, peptidyl arginine deiminase, type I (mouse Probe ID 95343_at): 0.83
  Fold Change 2nd, peptidyl arginine deiminase, type III (mouse Probe ID 103803_at): 1.4
[3]
  Fold Change 3rd, contactin 1 (mouse Probe ID 92936_at): 0.44
  Fold Change 3rd, lectin, galactose binding, soluble 1 (mouse Probe ID 99669_at): 1.3
  Fold Change 3rd, peptidyl arginine deiminase, type I (mouse Probe ID 95343_at): 0.67
  Fold Change 3rd, peptidyl arginine deiminase, type III (mouse Probe ID 103803_at): 1.5
[4]
  Fold Change 1st, aquaporin 5 (mouse Probe ID 113916_at): 0.77
  Fold Change 1st, contactin 1 (mouse Probe ID 105826_at): 0.83
  Fold Change 1st, contactin 1 (mouse Probe ID 164059_f_at): 1.7
[5]
  Fold Change 2nd, aquaporin 5 (mouse Probe ID 113916_at): 0.83
  Fold Change 2nd, contactin 1 (mouse Probe ID 105826_at): 1
  Fold Change 2nd, contactin 1 (mouse Probe ID 164059_f_at): 0.91
[6]
  Fold Change 3rd, aquaporin 5 (mouse Probe ID 113916_at): 0.59
  Fold Change 3rd, contactin 1 (mouse Probe ID 105826_at): 1.1
  Fold Change 3rd, contactin 1 (mouse Probe ID 164059_f_at): 0.77
S-Sal group versus S-OVA group, MG-U74 chip C, 1st
  Fold Change 1st, contactin 1 (mouse Probe ID 170177_r_at): 0.67
S-Sal group versus S-OVA group, MG-U74 chip C, 2nd
  Fold Change 2nd, contactin 1 (mouse Probe ID 170177_r_at): 1.1
S-Sal group versus S-OVA group, MG-U74 chip C, 3rd
  Fold Change 3rd, contactin 1 (mouse Probe ID 170177_r_at): 1.5
[7]
  Fold Change, AXL receptor tyrosine kinase (mouse probe 99136_at): 0.357
  Fold Change, claudin 4 (mouse probe 101410_at): 1.8
  Fold Change, histocompatibility-2 complex class I-like sequence (mouse probe 101433_at): 0.526
  Fold Change, interferon gamma inducible protein 30 (mouse probe 97444_at): 1.3
  Fold Change, interleukin 1 receptor-like 1 (mouse probe 98500_at): 1.3
  Fold Change, low density lipoprotein receptor-related protein associated protein 1 (mouse probe 161988_f_at): 1.3
  Fold Change, matrix metalloproteinase 7 (mouse probe 92917_at): 2.3
  Fold Change, met proto-oncogene (mouse probe 100309_at): 0.667
  Fold Change, phosphotidylinositol transfer protein, beta (mouse probe 102697_at): 0.303
[8]
  Fold Change, A kinase anchor protein 2 (mouse probe 101435_at): 0.833
  Fold Change, DNA segment. Chr 16. ERATO Doi 269, expressed (mouse probe 97822_at): 1
  Fold Change, DNA segment. Chr 16. ERATO Doi 269, expressed (mouse probe 97823_g_at): 1.1
  Fold Change, arachidonate 15-lipoxygenase (mouse probe 98758_at): 1.1
  Fold Change, cholesterol 25-hydroxylase (mouse probe 104509_at): 1.1
  Fold Change, claudin 5 (mouse probe 104516_at): 1.1
  Fold Change, decay accelerating factor 1 (mouse probe 103617_at): 1.2
  Fold Change, interferon-stimulated protein (20 kDa) (mouse probe 103432_at): 1
  Fold Change, low density lipoprotein receptor-related protein associated protein 1 (mouse probe 100086_at): 1.1
  Fold Change, membrane-associated protein 17 (mouse probe 96935_at): 1
S-Sal group vs S-OVA group, 1st, chip A, P/A call P, counterpart of human probe 353_at
  Fold Change, phosphotidylinositol transfer protein, beta (mouse probe 102696_s_at): 1.3
S-Sal group vs S-OVA group, 1st, chip A, P/A call P, counterpart of human probe 35017_f_at
  Fold Change, phosphotidylinositol transfer protein, beta (mouse probe 102696_s_at): 1.3
S-Sal group vs S-OVA group, 1st, chip A, P/A call P, counterpart of human probe 37420_i_at
  Fold Change, histocompatibility 2, Q region locus 7 (mouse probe 98438_f_at): 1.3
S-Sal group vs S-OVA group, 1st, chip A, P/A call P, counterpart of human probe 37421_f_at
  Fold Change, histocompatibility 2, Q region locus 7 (mouse probe 98438_f_at): 1.3
[9]
  Fold Change, A kinase (PRKA) anchor protein 10 (mouse probe 163162_at): 0.5
  Fold Change, ESTs Putative Ortholog of ISG-54K gene (mouse probe 164273_at): 1
  Fold Change, ESTs, Highly similar to AF116721 8 PRO0907 [H. sapiens] (mouse probe 114151_at): 1
  Fold Change, neurotrophic tyrosine kinase, receptor type 1 (mouse probe 110116_at): 2.5
  Fold Change, secreted end transmembrane 1 (mouse probe 115133_at): 0.435
[10]
  Fold Change, MP and activin membrane-bound inhibitor, homolog (Xanopus laevis) (mouse probe 162531_at): 1
  Fold Change, decay accelerating factor 1 (mouse probe 107626_at): 1.3
  Fold Change, viral hemorrhagic septicemia virus(VHSV) induced gene 1 (mouse probe 109385_at): 0.769
S-Sal group vs S-OVA group, 1st, chip C, P/A call A
  Fold Change, cholesterol 25-hydroxylase (mouse probe 133666_at): 0.588
[11]
  Fold Change, deleted in bladder cancer chromosome region candidate 1 (human) Putative Ortholog (mouse probe 166806_at): 1.4
  Fold Change, interferon-induced protein with tetratricopeptide repeats 1 (mouse probe 168299_f_at): 1.3
S-Sal group vs S-OVA group, 2nd, chip A
  Fold Change, interleukin 1 receptor-like 1 (mouse probe 98501_at): 1.8
[12]
  Fold Change, AXL receptor tyrosine kinase (mouse probe 99136_at): 0.476
  Fold Change, a disintegrin and metalloprotease domain 8 (mouse probe 103024_at): 3.4
  Fold Change, claudin 4 (mouse probe 101410_at): 3.4
  Fold Change, histocompatibility-2 complex class I-like sequence (mouse probe 101433_at): 0.625
  Fold Change, interferon gamma inducible protein 30 (mouse probe 97444_at): 1.9
  Fold Change, matrix metalloproteinase 7 (mouse probe 92917_at): 1.6
  Fold Change, met proto-oncogene (mouse probe 100309_at): 1
  Fold Change, phosphotidylinositol transfer protein, beta (mouse probe 102697_at): 0.333
S-Sal group vs S-OVA group, 2nd, chip A, P/A call M
  Fold Change, matrix metalloproteinase 7 (mouse probe 162318_r_at): 1.7
[13]
  Fold Change, A kinase anchor protein 2 (mouse probe 101435_at): 0.833
  Fold Change, DNA segment. Chr 16. ERATO Doi 269, expressed (mouse probe 97821_at): 1
  Fold Change, DNA segment. Chr 16. ERATO Doi 269, expressed (mouse probe 97823_g_at): 1.1
  Fold Change, arachidonate 15-lipoxygenase (mouse probe 98758_at): 3.5
  Fold Change, cholesterol 25-hydroxylase (mouse probe 104509_at): 3.1
  Fold Change, claudin 5 (mouse probe 104516_at): 1.2
  Fold Change, decay accelerating factor 1 (mouse probe 103617_at): 1.5
  Fold Change, interferon-stimulated protein (20 kDa) (mouse probe 103432_at): 1.2
  Fold Change, interleukin 1 receptor-like 1 (mouse probe 98500_at): 3.4
  Fold Change, polycystic kidney disease 2 (mouse probe 100951_at): 0.667
S-Sal group vs S-OVA group, 2nd, chip A, P/A call P, counterpart of human probe 353_at
  Fold Change, phosphotidylinositol transfer protein, beta (mouse probe 102696_s_at): 1
S-Sal group vs S-OVA group, 2nd, chip A, P/A call P, counterpart of human probe 35017_f_at
  Fold Change, phosphotidylinositol transfer protein, beta (mouse probe 102696_s_at): 1
S-Sal group vs S-OVA group, 2nd, chip A, P/A call P, counterpart of human probe 37420_i_at
  Fold Change, histocompatibility 2, Q region locus 7 (mouse probe 98438_f_at): 1.4
S-Sal group vs S-OVA group, 2nd, chip A, P/A call P, counterpart of human probe 37421_f_at
  Fold Change, histocompatibility 2, Q region locus 7 (mouse probe 98438_f_at): 1.4
[14]
  Fold Change, ESTs Putative Ortholog of ISG-54K gene (mouse probe 164273_at): 1
  Fold Change, ESTs, Highly similar to AF116721 8 PRO0907 [H. sapiens] (mouse probe 114151_at): 1.2
  Fold Change, decay accelerating factor 1 (mouse probe 164905_r_at): 1
  Fold Change, neurotrophic tyrosine kinase, receptor type 1 (mouse probe 110116_at): 1.2
  Fold Change, secreted end transmembrane 1 (mouse probe 115133_at): 0.5
[15]
  Fold Change, decay accelerating factor 1 (mouse probe 107626_at): 1.6
  Fold Change, interferon gamma inducible protein 30 (mouse probe 164423_at): 4
  Fold Change, viral hemorrhagic septicemia virus(VHSV) induced gene 1 (mouse probe 109385_at): 1.7
[16]
  Fold Change, deleted in bladder cancer chromosome region candidate 1 (human) Putative Ortholog (mouse probe 166806_at): 1.5
  Fold Change, interferon-induced protein with tetratricopeptide repeats 1 (mouse probe 168299_f_at): 1.1
S-Sal group vs S-OVA group, 3rd, chip A
  Fold Change, interleukin 1 receptor-like 1 (mouse probe 98501_at): 1
[17]
  Fold Change, AXL receptor tyrosine kinase (mouse probe 99136_at): 0.25
  Fold Change, a disintegrin and metalloprotease domain 28 (mouse probe 101723_r_at): 1.8
  Fold Change, histocompatibility-2 complex class I-like sequence (mouse probe 101433_at): 0.833
